From article PMC8758714, “Effective prediction of biosynthetic pathway genes involved in bioactive polyphyllins in Paris polyphylla” (Communications Biology, 2022)

Tested on: T1, PpUGT73CR1
T1 construct: gene UGT73CR1; tag removal not mentioned
Assay: HPLC quantification of product
Type: biochemical, Paris polyphylla var. yunnanensis
Details: 5 mM UDP-glucose, 50 mM Tris-HCl pH 8.0, 37 °C, 30 min, 20-400 µM acceptor
Description: HPLC quantification of product on PpUGT73CR1

Row | SMILES | Km (product trillin) [µM] | Km (product floribundasaponin A) [µM]
1 | C[C@@H]1CC[C@@]2(OC1)O[C@H]1C[C@H]3[C@@H]4CC=C5C[C@@H](O)CC[C@]5(C)[C@H]4CC[C@]3(C)[C@H]1[C@@H]2C [diosgenin] | 53.7 ± 9.37 | 
2 | C[C@@H]1CC[C@@]2(OC1)O[C@H]1C[C@H]3[C@@H]4CC=C5C[C@@H](O)CC[C@]5(C)[C@H]4CC[C@]3(C)[C@@]1(O)[C@@H]2C [pennogenin] |  | 73.4 ± 8.16
